# From patent US6878713B2, “Generation triple-targeting, chiral, broad-spectrum antimicrobial 7-substituted piperidino-quinolone carboxylic acid derivatives, their preparation, compositions and use as medicaments” (Wockhardt Limited, priority 2001, dated 2005)
row,melting point,Structure (SMILES)
1,182 to 184 °C,"COc1c(N2CCC(NC3CC3)C(C)C2)c(F)cc2c(=O)c(C(=O)O)cn(C3CC3)c12 (stereo not shown) [Compound 11, 1-Cyclopropyl-6-fluoro-1,4-dihydro-8-methoxy-7-(4-cyclopropylamino-3-methyl-1-piperidinyl)-4-oxo-quinoline-3-carboxylic acid]"
2,180 to 182 °C,"COc1c(N2CCC(N(C)C)C(C)C2)c(F)cc2c(=O)c(C(=O)O)cn(C3CC3)c12 (stereo not shown) [Compound 13, 1-Cyclopropyl-6-fluoro-1,4-dihydro-8-methoxy-7-(4-dimethylamino-3-methyl-1-piperidinyl)-4-oxo-quinoline-3-carboxylic acid]"
3,194 to 196 °C,"COc1c(N2CCC(NC(C)=O)C(C)(C)C2)c(F)cc2c(=O)c(C(=O)O)cn(C3CC3)c12 (stereo not shown) [Compound 29, 1-Cyclopropyl-6-fluoro-1,4-dihydro-8-methoxy-7-(4-acetylamino-3,3-dimethyl-1-piperidinyl)-4-oxo-quinoline-3-carboxylic acid]"
4,246 to 248 °C,"CNC1CCN(c2c(F)cc3c(=O)c(C(=O)O)cn(C4CC4)c3c2OC)CC1(C)C (stereo not shown) [Compound 35, 1-Cyclopropyl-6-fluoro-1,4-dihydro-8-methoxy-7-(4-methylamino-3,3-dimethyl-1-piperidinyl)-4-oxo-quinoline-3-carboxylic acid]"
5,230 to 232 °C,"CCNC1CCN(c2c(F)cc3c(=O)c(C(=O)O)cn(C4CC4)c3c2OC)CC1(C)C (stereo not shown) [Compound 36, 1-Cyclopropyl-6-fluoro-1,4-dihydro-8-methoxy-7-(4-ethylamino-3,3-dimethyl-1-piperidinyl)-4-oxo-quinoline-3-carboxylic acid]"
6,190 to 192 °C,"COc1c(N2CCC(NC3CC3)C(C)(C)C2)c(F)cc2c(=O)c(C(=O)O)cn(C3CC3)c12 (stereo not shown) [Compound 37, 1-Cyclopropyl-6-fluoro-1,4-dihydro-8-methoxy-7-(4-cyclopropylamino-3,3-dimethyl-1-piperidinyl)-4-oxo-quinoline-3-carboxylic acid]"
7,210 °C,"COc1c(N2CCC(N(C)C)C(C)(C)C2)c(F)cc2c(=O)c(C(=O)O)cn(C3CC3)c12 (stereo not shown) [Compound 38, 1-Cyclopropyl-6-fluoro-1,4-dihydro-8-methoxy-7-(4-dimethylamino-3,3-dimethyl-1-piperidinyl)-4-oxo-quinoline-3-carboxylic acid]"
8,152 to 154 °C,"CCC1(C)CN(c2c(F)cc3c(=O)c(C(=O)O)cn(C4CC4)c3c2OC)CCC1N (stereo not shown) [Compound 39, 1-Cyclopropyl-6-fluoro-1,4-dihydro-8-methoxy-7-(4-amino-3-ethyl-3-methyl-1-piperidinyl)-4-oxo-quinoline-3-carboxylic acid]"
9,182 to 184 °C,"CCC1(C)CN(c2c(F)cc3c(=O)c(C(=O)O)cn(C4CC4)c3c2OC)CCC1NC (stereo not shown) [Compound 40, 1-Cyclopropyl-6-fluoro-1,4-dihydro-8-methoxy-7-(4-methylamino-3-ethyl-3-methyl-1-piperidinyl)-4-oxo-quinoline-3-carboxylic acid]"
10,210 to 212 °C,"CCC1(C)CN(c2c(F)cc3c(=O)c(C(=O)O)cn(C4CC4)c3c2OC)CCC1NC1CC1 (stereo not shown) [Compound 41, 1-Cyclopropyl-6-fluoro-1,4-dihydro-8-methoxy-7-(4-cyclopropylamino-3-ethyl-3-methyl-1-piperidinyl)-4-oxo-quinoline-3-carboxylic acid]"
11,210 to 212 °C,"CCC1(C)CN(c2c(F)cc3c(=O)c(C(=O)O)cn(C4CC4)c3c2OC)CCC1N(C)C (stereo not shown) [Compound 42, 1-Cyclopropyl-6-fluoro-1,4-dihydro-8-methoxy-7-(4-dimethylamino-3-ethyl-3-methyl-1-piperidinyl)-4-oxo-quinoline-3-carboxylic acid]"
12,178 to 180 °C,"COc1c(N2CC(C)C(N)C(C)C2)c(F)cc2c(=O)c(C(=O)O)cn(C3CC3)c12 (stereo not shown) [Compound 44, 1-Cyclopropyl-6-fluoro-1,4-dihydro-8-methoxy-7-(4-amino-3,5-dimethyl-1-piperidinyl)-4-oxo-quinoline-3-carboxylic acid]"
13,268 to 272 °C,"CNC1C(C)CN(c2c(F)cc3c(=O)c(C(=O)O)cn(C4CC4)c3c2OC)CC1C (stereo not shown) [Compound 45, 1-Cyclopropyl-6-fluoro-1,4-dihydro-8-methoxy-7-(4-methylamino-3,5-dimethyl-1-piperidinyl)-4-oxo-quinoline-3-carboxylic acid]"
14,218 to 220 °C,"COc1c(N2CC(C)C(N)C(C)(C)C2)c(F)cc2c(=O)c(C(=O)O)cn(C3CC3)c12 (stereo not shown) [Compound 50, 1-Cyclopropyl-6-fluoro-1,4-dihydro-8-methoxy-7-(4-amino-3,3,5-trimethyl-1-piperidinyl)-4-oxo-quinoline-3-carboxylic acid]"
15,260 to 262 °C,"COc1c(N2CCC(N)C(C)C2)c(F)c(N)c2c(=O)c(C(=O)O)cn(C3CC3)c12 (stereo not shown) [Compound 53, 5-Amino-1-cyclopropyl-6-fluoro-1,4-dihydro-8-methoxy-7-(4-amino-3-methyl-1-piperidinyl)-4-oxo-quinoline-3-carboxylic acid]"
16,228 to 230 °C (dec.),"CNC1CCN(c2c(F)c(N)c3c(=O)c(C(=O)O)cn(C4CC4)c3c2OC)CC1C (stereo not shown) [Compound 60, 5-Amino-1-cyclopropyl-6-fluoro-1,4-dihydro-8-methoxy-7-(4-methylamino-3-methyl-1-piperidinyl)-4-oxo-quinoline-3-carboxylic acid]"
17,230 to 232 °C,"CCNC1CCN(c2c(F)c(N)c3c(=O)c(C(=O)O)cn(C4CC4)c3c2OC)CC1C (stereo not shown) [Compound 61, 5-Amino-1-cyclopropyl-6-fluoro-1,4-dihydro-8-methoxy-7-(4-ethylamino-3-methyl-1-piperidinyl)-4-oxo-quinoline-3-carboxylic acid]"
18,218 to 220 °C,"COc1c(N2CCC(NC3CC3)C(C)C2)c(F)c(N)c2c(=O)c(C(=O)O)cn(C3CC3)c12 (stereo not shown) [Compound 62, 5-Amino-1-cyclopropyl-6-fluoro-1,4-dihydro-8-methoxy-7-(4-cyclopropylamino-3-methyl-1-piperidinyl)-4-oxo-quinoline-3-carboxylic acid]"
19,210 °C,"COc1c(N2CCC(N(C)C)C(C)C2)c(F)c(N)c2c(=O)c(C(=O)O)cn(C3CC3)c12 (stereo not shown) [Compound 63, 5-Amino-1-cyclopropyl-6-fluoro-1,4-dihydro-8-methoxy-7-(4-dimethylamino-3-methyl-1-piperidinyl)-4-oxo-quinoline-3-carboxylic acid]"
20,205 °C,"COc1c(N2CCC(N)C(C)(C)C2)c(F)c(N)c2c(=O)c(C(=O)O)cn(C3CC3)c12 (stereo not shown) [Compound 68, 5-Amino-1-cyclopropyl-6-fluoro-1,4-dihydro-8-methoxy-7-(4-amino-3,3-dimethyl-1-piperidinyl)-4-oxo-quinoline-3-carboxylic acid]"
21,250 °C (dec.),"CNC1CCN(c2c(F)c(N)c3c(=O)c(C(=O)O)cn(C4CC4)c3c2OC)CC1(C)C (stereo not shown) [Compound 73, 5-Amino-1-cyclopropyl-6-fluoro-1,4-dihydro-8-methoxy-7-(4-methylamino-3,3-dimethyl-1-piperidinyl)-4-oxo-quinoline-3-carboxylic acid]"
22,205 °C (dec.),"CCNC1CCN(c2c(F)c(N)c3c(=O)c(C(=O)O)cn(C4CC4)c3c2OC)CC1(C)C (stereo not shown) [Compound 74, 5-Amino-1-cyclopropyl-6-fluoro-1,4-dihydro-8-methoxy-7-(4-ethylamino-3,3-dimethyl-1-piperidinyl)-4-oxo-quinoline-3-carboxylic acid]"
